{"source": "ChEMBL document CHEMBL3864144", "about": "“Cochlearoids F-K: Phenolic meroterpenoids from the fungus Ganoderma cochlear and their renoprotective activity” (Bioorg Med Chem Lett, 2016)", "note": "The source made the active and inactive calls. The rule behind the calls is not given here."}
{"system": "not listed separately", "assay": "Cytotoxicity against human HKC8 cells assessed as decrease in cell viability at 20 uM after 24 hrs by MTT assay", "type": "toxicity, cell-based", "conditions": "hkc8, 24 h"}
{"smiles": "CC(C)=CCC/C(C)=C/CC/C(=C/Cc1cc2oc(=O)c3c(O)ccc(O)c3c2cc1O)CO", "Activity": "Toxic"}
{"smiles": "CC(C)=CCC/C(=C/Cc1cc2oc(=O)c3c(O)ccc(O)c3c2cc1O)C(=O)O", "Activity": "Toxic"}
{"smiles": "CC(C)=CCC/C(C)=C/CC/C(=C/Cc1cc(O)cc2c(C(=O)c3cc(O)ccc3O)c(CC/C=C(\\C)CCC=C(C)C)c(=O)oc12)CO", "Activity": "Toxic"}
{"smiles": "CC(C)=CCC/C(C)=C/CC/C(=C/Cc1cc(O)cc2c1oc(=O)c1c(O)ccc(O)c12)C(=O)O", "Activity": "Toxic"}
{"smiles": "CC(C)=CCC/C(C)=C/CC/C(=C/Cc1cc(O)cc2c1oc(=O)c1c(O)ccc(O)c12)CO", "Activity": "Toxic"}
{"smiles": "CC(C)=CCC/C(C)=C/CC/C(=C/Cc1cc2oc(=O)c(CC/C=C(\\C)CCC=C(C)C)c(C(=O)c3cc(O)ccc3O)c2cc1O)CO", "Activity": "Toxic"}
{"system": "not listed separately", "assay": "Cytotoxicity against human HKC8 cells assessed as decrease in cell viability at 5 uM after 24 hrs by MTT assay", "type": "toxicity, cell-based", "conditions": "hkc8, 24 h"}
{"smiles": "CC(C)=CCC/C(=C/Cc1cc2oc(=O)c3c(O)ccc(O)c3c2cc1O)C(=O)O", "Activity": "Non-Toxic"}
{"smiles": "CC(C)=CCC/C(C)=C/CC/C(=C/Cc1cc(O)cc2c(C(=O)c3cc(O)ccc3O)c(CC/C=C(\\C)CCC=C(C)C)c(=O)oc12)CO", "Activity": "Non-Toxic"}
{"smiles": "CC(C)=CCC/C(C)=C/CC/C(=C/Cc1cc2oc(=O)c(CC/C=C(\\C)CCC=C(C)C)c(C(=O)c3cc(O)ccc3O)c2cc1O)CO", "Activity": "Non-Toxic"}
{"system": "not listed separately", "assay": "Cytotoxicity against human HKC8 cells assessed as decrease in cell viability at 2.5 uM after 24 hrs by MTT assay", "type": "toxicity, cell-based", "conditions": "hkc8, 24 h"}
{"smiles": "CC(C)=CCC/C(C)=C/CC/C(=C/Cc1cc2oc(=O)c3c(O)ccc(O)c3c2cc1O)CO", "Activity": "Non-Toxic"}
{"smiles": "CC(C)=CCC/C(C)=C/CC/C(=C/Cc1cc(O)cc2c1oc(=O)c1c(O)ccc(O)c12)C(=O)O", "Activity": "Non-Toxic"}
{"system": "not listed separately", "assay": "Cytotoxicity against human HKC8 cells assessed as decrease in cell viability at 10 uM after 24 hrs by MTT assay", "type": "toxicity, cell-based", "conditions": "hkc8, 24 h"}
{"smiles": "CC(C)=CCC/C(C)=C/CC/C(=C/Cc1cc(O)cc2c1oc(=O)c1c(O)ccc(O)c12)CO", "Activity": "Non-Toxic"}
{"system": "HKC8", "assay": "Renoprotective activity in human HKC8 cells assessed as inhibition of TGF-beta1-induced fibronectin production preincubated for 1 hr followed by TGF-beta1 induction measured after 24 hrs by solid-phase sandwich ELISA", "type": "functional, cell-based", "conditions": "not given"}
{"smiles": "CC(C)=CCC/C(=C/Cc1cc2oc(=O)c3c(O)ccc(O)c3c2cc1O)C(=O)O", "inhibition": "Active"}
{"smiles": "CC(C)=CCC/C(C)=C/CC/C(=C/Cc1cc(O)cc2c(C(=O)c3cc(O)ccc3O)c(CC/C=C(\\C)CCC=C(C)C)c(=O)oc12)CO", "inhibition": "Active"}
{"smiles": "CC(C)=CCC/C(C)=C/CC/C(=C/Cc1cc(O)cc2c1oc(=O)c1c(O)ccc(O)c12)C(=O)O", "inhibition": "Active"}
{"smiles": "CC(C)=CCC/C(C)=C/CC/C(=C/Cc1cc(O)cc2c1oc(=O)c1c(O)ccc(O)c12)CO", "inhibition": "Active"}
{"smiles": "CC(C)=CCC/C(C)=C/CC/C(=C/Cc1cc2oc(=O)c(CC/C=C(\\C)CCC=C(C)C)c(C(=O)c3cc(O)ccc3O)c2cc1O)CO", "inhibition": "Active"}
